Laboratory results from patent US20160058754A1, “Nalmefene for Treatment of Patients with Anxiety Disorder” (H. LUNDBECK A/S, priority 2013, published 2016).

Columns and labels:
[1] = tested on: Mice (NMRI); experiment: Marble burying test in mouse; format: in vivo; conditions: 0.01 or 1 mg/kg s.c.
Protocol: The method, which detects anxiolytic/tranquillizing activity, follows that described by Broekkamp et al (Eur. J. Pharmacol., 126, 223-229, 1986). Mice exposed to novel objects (marbles) will bury them in the sawdust floor covering. Anxiolytics decrease the number of marbles buried at non-sedative doses.
Nalmefene was tested in the marble burying model as the sole active compound. Mice (NMRI) were individually placed in transparent plastic cages (33×21×18 cm) with 5 cm of sawdust on the floor and 25 marbles grouped in the centre of the cage. The cage was covered with an inverted plastic cage. Each test cage, together with the marbles, was impregnated with mouse odor before-hand by leaving 10 mice in the cage for 15 minutes. These mice then played no further role in the experiment.
The number of marbles covered by sawdust (⅔ or more) was counted at the end of a 30 minute test. 12 mice were studied per group. The test was performed blind. Nalmefene was evaluated at 3 doses (0.01, 0.1 and 1 mg/kg), administered s.c. 30 minutes before the test, and compared with a vehicle control group. […]
Data with the test substance were analysed by comparing treated groups with vehicle control using Kruskall-Wallis test followed by Mann-Whitney U tests. Data with the reference substance were analysed using Mann-Whitney U tests. […]

[2] = tested on: patients with alcohol dependence; experiment: Clinical efficacy measured by POMS score (Studies 12014A, 12023A, 12013A); format: in vivo, human
Description: The term “POMS” is an abbreviation of “profile of mood states” and refers to a self-report inventory scale developed to assess the effect of e.g. new medication on mood states and mood changes. The scale measures six domains: Tension-Anxiety, Depression-Rejection, Anger-Hostility, Vigour-Activity, Fatigue-Inertia, and Confusion-Bewilderment. A total mood disturbance (TMD) score can be calculated. In general, a lower POMS score indicates a better mood state than a higher score except for vigour-activity, for which a higher POMS score indicates a better mood state. The scale has been described e.g. by McNair et al., Profile of mood states. San Diego, Calif.: Educational and Industrial Testing Service and by Nyenhios and Yamamoto, J. Clin. Psychology, (1999), Vol. 55(1): 79-86.
Assessment of POMs scores in Studies 12014A, 12023A and 12013A was used to evaluate the effect of nalmefene on mood states and mood changes throughout the study. […] Tables 5 and 7 indicate that patients with an anxiety disorder at baseline had higher POMS scores at baseline when compared to those patients without anxiety disorders. The change in POMS scores from baseline are illustrated in FIGS. 3-9. […] A remarkable improvement is seen over the weeks 8-20.
(§1) Another approach to identify patients with an anxiety disorder is by defining Anxiety Disorder at baseline as any ongoing medical history coded by the Medical Dictionary for Regulatory Activities (MedDRA) Preferred Term as ‘Acute Stress Disorder’, ‘Agoraphobia’, ‘Anxiety’, ‘Anxiety Disorder’, ‘Emotional Distress’, ‘Generalised Anxiety Disorder’, ‘Nervousness’, ‘Nosophobia’, ‘Obsessive-Compulsive Disorder’, ‘Panic Attack’, ‘Panic Disorder’, ‘Panic Disorder With Agoraphobia’, ‘Post-Traumatic Stress Disorder’, ‘Social Phobia’ and/or ‘Stress and Tension’. In examples 1 and 2 below patients classified with an anxiety disorder at baseline were selected based on said MedDRA terms.
Assessment of POMs scores in Studies 12014A, 12023A and 12013A was used to evaluate the effect of nalmefene on mood states and mood changes throughout the study. […]

[3] = tested on: patients with alcohol dependence; experiment: Clinical efficacy on the reduction of alcohol consumption (Studies 12014A, 12023A, 12013A); format: in vivo, human
Protocol: The efficacy of nalmefene in the reduction of alcohol consumption in patients with alcohol dependence (DSM-IV) has been evaluated in studies 12014A, 12023A and 12013A. The efficacy of nalmefene was measured using two co-primary endpoints: the change from baseline in the monthly number of heavy drinking days (HDDs) and the change from baseline in the average daily total alcohol consumption (TAC).
as §1
The efficacy of nalmefene on the reduction of alcohol consumption in patients with alcohol dependence (DSM-IV) was evaluated in two efficacy studies (Study 12014A and Study 12023A) and a safety study (Study 12013A). All studies were multi-national, multi-site, randomised, double blind, two parallel group, placebo controlled studies. The efficacy was evaluated over 24 weeks of treatment. The studies included outpatients, aged ≧18 years, with a primary diagnosis of alcohol dependence. […] Patients with psychiatric co-morbidity (that is, patients who used stable doses of antipsychotics and/or certain antidepressants) were also included unless the treatment of the psychiatric comorbidity had to take priority over treatment of the drinking problem, or was likely to interfere with study treatment or impairs treatment compliance.
The studies included in total 1997 patients, 1173 of whom were treated with nalmefene 18 mg in an as-needed dosing regimen. A motivational and adherence enhancing intervention was administered to all the patients to support the patients in changing their behavior and to enhance adherence to treatment.
The efficacy of nalmefene on the reduction of alcohol consumption was measured using two co-primary endpoints: the change in the monthly number of heavy drinking days (HDDs) and the change in the average daily total alcohol consumption (TAC). A HDD was defined as a day with a consumption ≧60 g alcohol for men and ≧40 g for women.

[4] = molecular target: μ receptor (Homo sapiens, UniProt P35372); conditions: in vitro studies; cited from earlier work
Chain of μ receptor (P35372 whole entry): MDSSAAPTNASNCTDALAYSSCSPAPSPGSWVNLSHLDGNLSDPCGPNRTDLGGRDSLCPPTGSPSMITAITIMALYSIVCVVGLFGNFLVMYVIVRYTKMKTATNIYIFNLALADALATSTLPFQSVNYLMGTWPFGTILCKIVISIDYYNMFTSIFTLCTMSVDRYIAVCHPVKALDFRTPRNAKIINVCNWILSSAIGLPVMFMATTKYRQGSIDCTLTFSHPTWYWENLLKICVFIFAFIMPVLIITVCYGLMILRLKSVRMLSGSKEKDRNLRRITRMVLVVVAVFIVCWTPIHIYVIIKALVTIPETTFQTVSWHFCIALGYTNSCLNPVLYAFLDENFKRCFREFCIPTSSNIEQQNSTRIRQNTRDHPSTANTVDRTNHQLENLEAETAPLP

[5] = tested on: rats; experiment: Elevated plus maze test in rats; format: in vivo, rat; conditions: 0.01, 0.1 and 1 mg/kg s.c. 30 minutes before the test; 5 minutes; vs vehicle
Description: Rats have an aversion of open spaces and avoid them by confining movements to enclosed spaces or to the edges of a bounded space. Anxiolytic activity can be tested in a test setting consists of a plus-shaped apparatus with two open and two enclosed arms, each with an open roof, elevated 40-70 cm from the floor according to Pellow et al., J. Neurosci. Methods. (1985) August; 14(3):149-67. Pretreatment of rats with anxiolytic active compounds will increase in the proportion of time spent in the open arms (time in open arms/total time in open or closed arms), and an increase in the proportion of entries into the open arms (entries into open arms/total entries into open or closed arms). Total number of arm entries and number of closed-arm entries can be employed as measures of general activity.
Nalmefene was tested as the sole active compound in the elevated plus maze test in rats. A rat was placed in the centre of the plus-maze and left to explore for 5 minutes. The number of entries into the open and closed arms and the time spent on the open arms were recorded. The % of open arm entries (open arm entries/total arm entries×100) was calculated. Nalmefene was evaluated at 3 doses (0.01, 0.1 and 1 mg/kg), administered s.c. 30 minutes before the test, and compared with a vehicle control group.

[6] = tested on: rats; experiment: Vogel test in rats; format: in vivo, rat; conditions: 0.01, 0.1 and 1 mg/kg s.c. 30 minutes before the test; 3-minute test; vs vehicle
Description: Pairing of water drinking with […] shock punishment will induce a conflict in water deprived rats and lead to less frequent water seeking behaviour. Pretreatment of rats with an anxiolytic will counteract the conflict and increase the frequency of water seeking. The test can be conducted as described in detail by Vogel et al., Psychopharmacology, (1971), 21: pp. 1-7. In brief, rats are adapted to the test chambers, a Plexiglas box, equipped with a grid floor made of stainless steel bars and a drinking bottle with tap water. After the adaptation period, the animals are deprived of water and then placed in the test chamber for free access to the drinking bottle for a short period. Afterwards, they are allowed a short free-drinking session in their home cage. After another water deprivation period, the rats are placed again in the test chamber and allowed to drink for a very short time (30 s); immediately afterwards, their drinking attempts are punished with an electric shock. […] The number of shocks accepted throughout a 5-min experimental session was recorded.
Nalmefene was tested as the sole active compound in the Vogel model in rats. […] The number of punished drinks was counted during a 3-minute test. Nalmefene was evaluated at 3 doses (0.01, 0.1 and 1 mg/kg), administered s.c. 30 minutes before the test, and compared with a vehicle control group.

[7] = molecular target: κ receptor (Homo sapiens, UniProt P41145); conditions: in vitro studies; cited from earlier work
Chain of κ receptor (P41145 whole entry): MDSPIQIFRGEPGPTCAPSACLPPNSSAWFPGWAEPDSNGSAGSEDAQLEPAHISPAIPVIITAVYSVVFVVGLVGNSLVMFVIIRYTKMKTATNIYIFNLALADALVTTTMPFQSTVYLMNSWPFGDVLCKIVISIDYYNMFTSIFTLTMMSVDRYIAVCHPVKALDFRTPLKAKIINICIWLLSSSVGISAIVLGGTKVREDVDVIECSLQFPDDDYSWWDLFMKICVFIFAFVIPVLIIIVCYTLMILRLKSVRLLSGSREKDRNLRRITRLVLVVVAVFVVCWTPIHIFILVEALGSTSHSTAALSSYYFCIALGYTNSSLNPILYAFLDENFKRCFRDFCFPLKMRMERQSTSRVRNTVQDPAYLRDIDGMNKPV

[8] = molecular target: δ receptor (Homo sapiens, UniProt P41143); conditions: in vitro studies; cited from earlier work
Chain of δ receptor (P41143 whole entry): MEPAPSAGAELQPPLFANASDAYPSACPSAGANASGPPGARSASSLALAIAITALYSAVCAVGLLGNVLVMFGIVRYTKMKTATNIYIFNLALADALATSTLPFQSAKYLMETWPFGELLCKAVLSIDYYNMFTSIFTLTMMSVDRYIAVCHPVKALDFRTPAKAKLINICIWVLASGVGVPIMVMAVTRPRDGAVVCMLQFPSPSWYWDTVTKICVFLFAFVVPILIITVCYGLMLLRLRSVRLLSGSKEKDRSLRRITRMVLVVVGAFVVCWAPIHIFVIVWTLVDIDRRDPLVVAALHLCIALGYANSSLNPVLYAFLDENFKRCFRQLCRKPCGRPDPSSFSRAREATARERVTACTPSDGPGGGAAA

[9] = tested on: patients with alcohol dependence; experiment: Clinical efficacy measured by SF-36 Mental Component Summary (FAS, OC); format: in vivo, human; conditions: for SF-36 Mental Component Summary, Change to Week 12, Mean ± SE / SF-36 Mental Component Summary, Change to Week 24, Mean ± SE: pooled studies, FAS, OC
Description: Another method for measuring a patient's health status is by the SF-36 which is a patient-reported outcome developed as a general measure of perceived health status. The mental component summary score focuses on mental aspects of health related quality of life. Higher scores correspond to better health status or well-being.

[10] = total patient group, nalmefene 18 mg as-needed vs placebo
[11] = no anxiety disorder at baseline

Compound: C=C1CC[C@@]2(O)[C@H]3Cc4ccc(O)c5c4[C@@]2(CCN3CC2CC2)[C@H]1O5 [Nalmefene, 17-(cyclopropylmethyl)-4,5-alpha-epoxy-6-methylenemorphinan-3,14-diol]
- effect on number of marbles covered by sawdust compared with vehicle controls [1]: no significant effects
- POMS score, nalmefene vs placebo ([2]; patients with an anxiety disorder at baseline, end of the study): better POMS score
- POMS total mood disturbance, tension-anxiety, depression-rejection, anger-hostility and confusion, nalmefene vs placebo ([2]; patients with an anxiety disorder at baseline, weeks 4-24): better POMS scores
- POMS score, nalmefene vs placebo ([2]; patients without an anxiety disorder at baseline, throughout the study): no pronounced difference between nalmefene and placebo
- alcohol consumption ([3]; patients with an anxiety disorder at baseline): significally reduced
- reducing TAC (change from baseline in average daily total alcohol consumption) [3, 10]: superior to placebo
- reducing the number of HDDs (change from baseline in monthly number of heavy drinking days) [3, 10]: superior to placebo
- difference between nalmefene and placebo measured in HDDs and TAC ([3]; week 24, patients with an anxiety disorder at baseline compared with patients without): merely at the same level
- activity at the μ receptor [4]: antagonist activity
- open and closed arm entries, time spent on the open arms, % of open arm entries [5]: No significant effect
- number of punished drinks [6]: No significant effect
- activity at the κ receptor [7]: partial agonist activity
- activity at the δ receptor [8]: antagonist activity
- difference between nalmefene and placebo in the change from baseline in SF-36 mental component summary score ([9]; Week 12 and Week 24, patients with an anxiety disorder at baseline compared with patients without): more pronounced
- SF-36 Mental Component Summary, Change to Week 12, Mean ± SE ([9]; anxiety disorder at baseline): 6.23 ± 1.47
- SF-36 Mental Component Summary, Change to Week 24, Mean ± SE ([9]; anxiety disorder at baseline): 7.56 ± 2.24
- SF-36 Mental Component Summary, Change to Week 12, Mean ± SE [9, 11]: 4.77 ± 0.37
- SF-36 Mental Component Summary, Change to Week 24, Mean ± SE [9, 11]: 5.65 ± 0.43
